The first data set is described as follows: Solubility properties of the compounds (Table 1). In kind it is physicochemical. The note with it: qualitative; solvents named in the cell. The text has this:
In Tabelle 1 sind die erfindungsgemäßen Verbindungen bezüglich ihrer Farbe/Konsistenz und bezüglich ihrer Löslichkeitseigenschaften zusammengestellt.
For `C1=CC(P(c2ccccc2)c2ccccc2)C=C1.[Co+2].[F][Sb-]([F])([F])([F])([F])[F].c1ccc(P(c2ccccc2)[c-]2cccc2)cc1` [Beispiel 2, 1,1'-Bis(diphenylphosphino)cobalticinium Hexafluoroantimonat], the Löslichkeitseigenschaften result is reported as “löslich in Methylenchlorid, Nitromethan, Methan und Aceton”.
Turning to `C1=CC(P(c2ccccc2)c2ccccc2)C=C1.[Co+2].c1ccc(P(c2ccccc2)[c-]2cccc2)cc1.c1ccc([B-](c2ccccc2)(c2ccccc2)c2ccccc2)cc1` [Beispiel 7, 1,1'-Bis(diphenylphosphino)cobalticinium Tetraphenylborat], the Löslichkeitseigenschaften entry is recorded as “löslich in Methylenchlorid”.
“1,1'-Bis(diphenylphosphino)cobalticinium Tosylat [Beispiel 4]”: the Löslichkeitseigenschaften entry was “löslich in Methylenchlorid, Methanol, Aceton, Nitromethan”.
Still for that read-out and setting: under “1,1'-Bis(diphenylphosphinoindenyl)-cobalticinium-Tetrafluoroborat [Beispiel 8]” stands “löslich in Methylenchlorid”.
Take `C1=CC(P(c2ccccc2)c2ccccc2)C=C1.O=S(=O)([O-])C(F)(F)F.[Co+2].c1ccc(P(c2ccccc2)[c-]2cccc2)cc1` [Beispiel 5, 1,1'-Bis(diphenylphosphino)cobalticinium Triflat]: the Löslichkeitseigenschaften result is reported as “löslich in Methylenchlorid, Aceton, Nitromethan, Methanol”.
Same read-out and setting: with `C1=CC(P(c2ccccc2)c2ccccc2)C=C1.O=[N+]([O-])[O-].[Co+2].c1ccc(P(c2ccccc2)[c-]2cccc2)cc1` [Beispiel 3, 1,1'-Bis (diphenylphosphino)cobalticinium Nitrat] the entry was “löslich in warmem Wasser”.
The same measure, in the same setting: under “1,1'-Bis(diphenylphosphino)cobalticinium Trifluoracetat [Beispiel 6]” stands “löslich in Methylenchlorid, Aceton, Methanol, Nitromethan”; under “1,1'-Bis(diphenylphosphino)cobalticinium Tetrafluoroborat [Beispiel 1]”, “löslich in Methylenchlorid, Nitro-methan, Methanol und Aceton”.

The data set is the same for the next values; noted with them: water; in contrast to the other compounds of formula I and the known hexafluorophosphate.
Consider `C1=CC(P(c2ccccc2)c2ccccc2)C=C1.O=[N+]([O-])[O-].[Co+2].c1ccc(P(c2ccccc2)[c-]2cccc2)cc1` [Beispiel 3, 1,1'-Bis (diphenylphosphino)cobalticinium Nitrat], for which the “Löslichkeit in Wasser” value is given as “gute Löslichkeit in Wasser”.

The values above are taken from EP1019422B1, “PHOSPHINE-SUBSTITUTED COBALTICINIUM SALTS, PRODUCTION THEREOF, AND USE OF THE SAME AS CONSTITUENTS OF CATALYSTS” (Celanese Chemicals Europe GmbH, priority 1997, dated 1999).
